In one test the target is GalfNeoLect (Streptomyces sp. JHA19, UniProt A0A0K2SRV3, E464Q). Kind of test: Competitive inhibition assay of GalfNGP binding to immobilised GalfNeoLect. To be noted: for inhibition of GalfNGP binding to immobilised GalfNeoLect: result in words; for pIC50: biotinylated GalfNGP (2 μg/mL) as tracer, read-out: IC50 of inhibitors towards GalfNeoLect. Further details: species or system Streptomyces sp. strain JHA19. On the procedure: In the competitive inhibition assay, we investigated the ability of selected pNP, azido, or thyoaryl monosaccharide substrates (Galf-N3, Galf-thioaryl, pNP-β-D-Galf, pNP-β-D-Galp, pNP-α-L-Araf, pNP-β-D-Ribf) (Figure 5) for their ability to inhibit the binding of GalfNGP to immobilised GalfNeoLect.
Chain of GalfNeoLect (A0A0K2SRV3 45-786 E464Q limits assumed): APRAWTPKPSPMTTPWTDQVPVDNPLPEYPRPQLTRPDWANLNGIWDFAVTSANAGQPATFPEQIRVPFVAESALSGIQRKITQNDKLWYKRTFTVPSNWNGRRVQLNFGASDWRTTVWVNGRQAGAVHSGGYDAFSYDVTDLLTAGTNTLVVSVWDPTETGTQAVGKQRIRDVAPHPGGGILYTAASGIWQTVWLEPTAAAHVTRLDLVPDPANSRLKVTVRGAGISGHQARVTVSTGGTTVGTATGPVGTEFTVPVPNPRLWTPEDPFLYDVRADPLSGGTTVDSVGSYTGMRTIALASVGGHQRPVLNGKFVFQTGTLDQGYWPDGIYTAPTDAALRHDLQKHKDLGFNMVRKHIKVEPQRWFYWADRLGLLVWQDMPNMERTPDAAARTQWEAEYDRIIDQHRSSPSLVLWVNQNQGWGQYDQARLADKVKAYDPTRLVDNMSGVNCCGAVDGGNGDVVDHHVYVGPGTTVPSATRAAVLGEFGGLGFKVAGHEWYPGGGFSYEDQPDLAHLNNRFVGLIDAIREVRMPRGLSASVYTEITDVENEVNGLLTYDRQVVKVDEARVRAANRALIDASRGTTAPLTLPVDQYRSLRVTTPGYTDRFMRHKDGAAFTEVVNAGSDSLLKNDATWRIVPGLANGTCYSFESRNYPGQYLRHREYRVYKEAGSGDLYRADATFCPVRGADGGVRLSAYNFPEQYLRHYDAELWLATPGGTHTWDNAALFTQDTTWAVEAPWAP
(§1) The interaction profiles of each compound were determined through an indirect method, based on the inhibition by the compound of the interaction between a specific coupled lectin–glycan (a neoglycoprotein labelled with biotin and used as a tracer). Briefly, a mix of biotinylated GalfNGP (fixed concentration) and the corresponding compounds (in a range of concentrations), prepared in PBS supplemented with 1 mM CaCl2 and 0.5 mM MgCl2, are deposed in each well (50 μL each) in triplicate and incubated for 2 h at room temperature. After washing with PBS buffer, the conjugate streptavidin-DTAF was added (50 μL) and incubated for 30 min more. The plate was washed again with PBS. Finally, 100 μL of PBS was added for the readout of the fluorescent plate, performed with a fluorescence reader (λex = 485 nm, λem = 530 nm, Fluostar OPTIMA, BMG LABTECH, France). The signal intensity was inversely correlated with the capacity of the compound to be recognised by the lectin and expressed as inhibition percentage with comparison with the corresponding biotinylated GalfNGP alone.
Aspergillus brasiliensis (ATCC 16404) culture was inoculated on Sabouraud agar plates and incubated at 37 °C for 4 days until the formation of a black mycelium mat, which contains spores. Fresh spores were harvested with a sterile plastic inoculation loop by rubbing the black mycelium mat and dispersed in physiological serum solution (0.8% NaCl, 10 mL). The spore solution was resuspended well by using a vortex to prevent aggregation and was calibrated using a Malassez counting chamber to 5.10^6 spores/mL. Spores’ solutions (5.10^6 spores/mL) were used directly in inhibition assays with GalfNeoLect, following the same protocol describe above (Section 4.8).

The target of test [1] is T1, wild-type Galf-ase (Streptomyces sp. JHA19, UniProt A0A0K2SRV3). Kind of test: Competitive inhibition assay of GalfNGP binding to wild-type Galf-ase. Details: species or system Streptomyces sp. strain JHA19. To be noted: biotinylated GalfNGP (2 μg/mL) as tracer; read-out: IC50 of inhibitors towards wild-type Galf-ase. On the procedure: Indeed, Table 6 summarises the 50% inhibitory concentrations (IC50) obtained from all compounds studied.
as §1
Target sequence in this assay (A0A0K2SRV3 45-786 limits assumed): as the sequence (A0A0K2SRV3 45-786 E464Q limits assumed) above, with Q420E counted along it

For another test, the system named is T2, E464C.
T2 construct: pET-28a(+) construct, expressed in E. coli Rosetta (DE3), Ni-NTA purified
Kind of test: Absorbance at 405 nm of p-nitrophenol released by hydrolysis of pNP-β-D-Galf (0.01-5 mM), citrate/phosphate buffer pH 4.5, 37 °C, 20 min, stopped with Na2CO3. Format: biochemical. The note with it: n = 3. The procedure: (§2) In analysing the hydrolitic activity and the hydrolysis rate-limiting steps of the three Galf-ase mutant variants E464S, E464C, and E464Q, the Michaelis–Menten kinetic parameters were determined under the similar conditions used for wild-type enzyme. […] Altogether, the obtained values are in the same order of magnitude. […] The significant decrease in catalytic efficiency by a factor of 3000–1400 times for E464S and E464C mutants, respectively, and 56 times lower for E464Q mutant is observed. These kinetic observations are in accordance with the other data obtained in similar assays used for the identification of the catalytic residues in retaining and inverting several GHs. The Galf-ase mutant variant E464Q featured only a minor change in the KM value, 166 µM compared to 250 µM, of the wild-type Galf-ase and, given the advantage that, contrary to other mutant variants, it was purified in sufficient quantities (0.3 mg/L), it was selected as a promising candidate to be tested as a novel Galf-binding lectin (GalfNeoLect). Further in the article, the E464Q mutant variant is addressed as GalfNeoLect.
(§3) Kinetic parameters were determined with pNP-β-D-Galf as a substrate in different concentration ranges (0.01–5 mM). The reaction (200 μL), containing buffer (20 μL; 0.1 M citric acid/0.2 M Na2HPO4 pH 4.5) and water, if required, was started by addition of the enzyme (2 μL; 0.13 mg/mL) and, after 20 min of incubation at 37 °C (water bath), the reaction was terminated (100 μL; 1 M Na2CO3) and absorbance (405 nm) of released pNP was measured. All the reactions were assayed in triplicate and absorbance values were corrected for the spontaneous hydrolysis of the substrate. The kinetic parameters (KM, Vm, kcat) were calculated using GraphPad Prism 5 software (GraphPad Software, San Diego, CA, USA).
(§4) Figure S4. Michaelis–-Menten plot of pNP-β-D-Galf hydrolysis reaction catalysed by Galf-ase E464S, E464C, and
(§5) E464Q mutant variants. Mean values and SD error bars were calculated from three independent experiments
(§6) (*except E464C) and from a single protein preparation. […]

For another test, the system named is T3, E464S.
T3 construct: pET-28a(+) construct, expressed in E. coli Rosetta (DE3), Ni-NTA purified
The description is as above. Format: biochemical. To be noted: n = 3. The procedure:
as §2, §3, §4, §5, §6

The subject of another test is T4, E464Q (GalfNeoLect).
T4 construct: pET-28a(+) construct, expressed in E. coli Rosetta (DE3), Ni-NTA purified
The description is as above. Type of test: biochemical. The note with it: n = 3. On the procedure:
as §2, §3, §4, §5, §6

Test [2] relates to T5, Galf-ase (wild-type Galf-ase; E464).
T5 construct: pET-28a(+) construct, expressed in E. coli Rosetta (DE3), Ni-NTA purified
The description is as above. Format: biochemical. To be noted: n = 3; cited from earlier work. The procedure: as §2, with “Further in the article, the E464Q mutant variant is addressed as GalfNeoLect.” left out
Kinetic parameters were determined with pNP-β-D-Galf as a substrate in different concentration ranges (0.01–5 mM). […] All the reactions were assayed in triplicate and absorbance values were corrected for the spontaneous hydrolysis of the substrate. The kinetic parameters (KM, Vm, kcat) were calculated using GraphPad Prism 5 software (GraphPad Software, San Diego, CA, USA). […]

Test [3] addresses T1, wild-type Galf-ase. Kind of test: Direct binding assay (ELLA) of biotinylated neoglycoproteins to immobilised wild-type Galf-ase. Details: species or system Streptomyces sp. strain JHA19. The note with it: read-out: BC50 (concentration to obtain 50% GalfNGP binding). An excerpt: To study and evaluate the binding interactions of Galf-ase E464Q mutant variant, as novel Galf-binding lectin (GalfNeoLect), we synthetised novel neoglycoproteins (NGPs) to serve as the Galf-bearing scaffold. Bovine serum albumin (BSA), a well-known, naturally unglycosylated protein that has up to 60 primary amino functional groups available for click-conjugation chemistry, has been functionalised with Galf motifs. Galf-N3, involved in the corresponding click reaction with propargyl functionalised BSA, was obtained from the corresponding per-O-acetyl galactofuranose using TMSN3 as a source of azide and TMSOTf as the Lewis acid (see ESI for chemical synthesis). After acetyl cleavage, the resulting/expected Galf-conjugated BSA neoglycoprotein (GalfNGP) synthesis has been first characterised for its functionality by direct binding assay with human Intelectin-1 (hIntL-1), wild-type Galf-ase, and GalfNeoLect. As hIntL-1 has been reported to bind furanose residues (five-membered-ring saccharide isomers), including a β-Galf–containing disaccharide, it served as a positive control for the evaluation of newly synthetised GalfNGP. […]
The assays were performed according to GlycoDiag’s protocol, already described in the literature. […] Finally, 100 μL of PBS was added for reading the plate using a fluorescence reader (λex = 485 nm, λem = 530 nm, Fluostar OPTIMA, BMG LABTECH, France). […]

pEC50, pIC50: −log10 of the molar value. Where two headings read alike, the source gives them in different places.

With `O=[N+]([O-])c1ccc(O[C@@H]2O[C@@H](CO)[C@H](O)[C@H]2O)cc1` [pNP-α-L-Araf], the “inhibition of GalfNGP binding to immobilised GalfNeoLect” value (“inhibition of GalfNGP binding” below) on GalfNeoLect is “no inhibition”.

Take `O=[N+]([O-])c1ccc(O[C@@H]2O[C@@H]([C@H](O)CO)[C@H](O)[C@H]2O)cc1` [pNP-β-D-Galf]: the figures for the pIC50 at wild-type Galf-ase [1] and at GalfNeoLect were 3.25 and 2.94, respectively.

With `O=[N+]([O-])c1ccc(O[C@@H]2O[C@@H]([C@H](O)CO)[C@H](O)[C@H]2O)cc1` [pNP-β-D-Galf, p-nitrophenyl β-D-galactofuranoside], the Km in the test with E464C was 170 µM; with E464S, 36 µM; with E464Q (GalfNeoLect) it was 166 µM; in test [2], 250 µM.

Consider `O=[N+]([O-])c1ccc(OC2OC(CO)C(O)C2O)cc1` [pNP-β-D-Ribf], for which the “inhibition of GalfNGP binding” value on GalfNeoLect is “no inhibition”.

With `O=[N+]([O-])c1ccc(O[C@@H]2O[C@H](CO)[C@H](O)[C@H](O)[C@H]2O)cc1` [pNP-β-D-Galp], the “inhibition of GalfNGP binding” value on GalfNeoLect is “no inhibition”.

Regarding `Cc1ccc(S[C@@H]2O[C@@H]([C@H](O)CO)[C@H](O)[C@H]2O)cc1` [Galf-thioaryl], the pIC50 on wild-type Galf-ase [1] is 3.74; on GalfNeoLect (listed as Galf-Thioaryl), 3.82; on GalfNeoLect, 3.74.

With “GalfNGP: Galf-conjugated bovine serum albumin neoglycoprotein carrying multivalent Galf units”, the pEC50 with wild-type Galf-ase [3] is 7.62.

With `[N-]=[N+]=N[C@@H]1O[C@@H]([C@H](O)CO)[C@H](O)[C@H]1O` [Galf-N3, β-D-galactofuranosyl azide], the values for the pIC50 at wild-type Galf-ase [1] and at GalfNeoLect were 3.23 and 2.86, respectively.

As a reminder, the pIC50 is the negative decadic logarithm of the IC50, by convention in mol/L. Usually Km stands for the substrate concentration at which the rate is half of its maximum.

The record behind these values is article PMC11084152, “Galf-Specific Neolectins: Towards Promising Diagnostic Tools” (International Journal of Molecular Sciences, 2024).
